Experimental data from publication PMC9856672, “SGC-CAMKK2-1: A Chemical Probe for CAMKK2” (Cells, 2023).
Like-named read-outs stand apart in the source and are kept apart here.

What was measured:
[1] = biological target: T1, CAMKK1 (Homo sapiens, UniProt Q8N5S9); assay: DiscoverX KINOMEscan binding assay at 1 μM, CAMKK1
T1 construct: purchased Eurofins DiscoverX KINOMEscan
Protocol: (§1) Compounds were screened at Eurofins DiscoverX (Freemont, CA) at a single concentration of 1 μM using binding assays as described previously. Briefly, extracts containing DNA-tagged kinases are incubated with immobilized kinase inhibitors and the test compound (at 1 μM). Test compounds that displace the immobilized broad-spectrum inhibitors are detected by quantitative PCR. The results are expressed as the percentage of kinase bound to the bead compared to DMSO control (%control). […] The formula to calculate S10 depicted in Equation (1). (1) S10(1 μM)=number of wild type kinase with % control ≤10/number of wild type kinase tested
(§2) A series of furo [2,3-b]pyridines were generated with modifications off the core at the 3- and 5-positions. They were profiled in the CAMKK2 enzyme assay we have described and utilized previously. Briefly, the enzyme assay measures the ability of the compound to inhibit the transfer of a radiolabeled phosphate from ATP to a CAMKK2-specific peptide. […] 5 was then profiled in the DiscoverX KINOMEscan™ assay panel to provide a view of the overall kinome-wide selectivity (Supplemental S2). This assay platform evaluates compound affinity for a panel of more than 400 wild-type human kinases. The S10 (1 µM), a calculated score that is reflective of broad kinome selectivity, is 0.002 for the probe molecule.

[2] = biological target: T2, MYO3B (Homo sapiens, UniProt Q8WXR4); assay: DiscoverX KINOMEscan binding assay at 1 μM, MYO3B
T2 construct: purchased Eurofins DiscoverX KINOMEscan
T2 sequence (Q8WXR4 1-1341): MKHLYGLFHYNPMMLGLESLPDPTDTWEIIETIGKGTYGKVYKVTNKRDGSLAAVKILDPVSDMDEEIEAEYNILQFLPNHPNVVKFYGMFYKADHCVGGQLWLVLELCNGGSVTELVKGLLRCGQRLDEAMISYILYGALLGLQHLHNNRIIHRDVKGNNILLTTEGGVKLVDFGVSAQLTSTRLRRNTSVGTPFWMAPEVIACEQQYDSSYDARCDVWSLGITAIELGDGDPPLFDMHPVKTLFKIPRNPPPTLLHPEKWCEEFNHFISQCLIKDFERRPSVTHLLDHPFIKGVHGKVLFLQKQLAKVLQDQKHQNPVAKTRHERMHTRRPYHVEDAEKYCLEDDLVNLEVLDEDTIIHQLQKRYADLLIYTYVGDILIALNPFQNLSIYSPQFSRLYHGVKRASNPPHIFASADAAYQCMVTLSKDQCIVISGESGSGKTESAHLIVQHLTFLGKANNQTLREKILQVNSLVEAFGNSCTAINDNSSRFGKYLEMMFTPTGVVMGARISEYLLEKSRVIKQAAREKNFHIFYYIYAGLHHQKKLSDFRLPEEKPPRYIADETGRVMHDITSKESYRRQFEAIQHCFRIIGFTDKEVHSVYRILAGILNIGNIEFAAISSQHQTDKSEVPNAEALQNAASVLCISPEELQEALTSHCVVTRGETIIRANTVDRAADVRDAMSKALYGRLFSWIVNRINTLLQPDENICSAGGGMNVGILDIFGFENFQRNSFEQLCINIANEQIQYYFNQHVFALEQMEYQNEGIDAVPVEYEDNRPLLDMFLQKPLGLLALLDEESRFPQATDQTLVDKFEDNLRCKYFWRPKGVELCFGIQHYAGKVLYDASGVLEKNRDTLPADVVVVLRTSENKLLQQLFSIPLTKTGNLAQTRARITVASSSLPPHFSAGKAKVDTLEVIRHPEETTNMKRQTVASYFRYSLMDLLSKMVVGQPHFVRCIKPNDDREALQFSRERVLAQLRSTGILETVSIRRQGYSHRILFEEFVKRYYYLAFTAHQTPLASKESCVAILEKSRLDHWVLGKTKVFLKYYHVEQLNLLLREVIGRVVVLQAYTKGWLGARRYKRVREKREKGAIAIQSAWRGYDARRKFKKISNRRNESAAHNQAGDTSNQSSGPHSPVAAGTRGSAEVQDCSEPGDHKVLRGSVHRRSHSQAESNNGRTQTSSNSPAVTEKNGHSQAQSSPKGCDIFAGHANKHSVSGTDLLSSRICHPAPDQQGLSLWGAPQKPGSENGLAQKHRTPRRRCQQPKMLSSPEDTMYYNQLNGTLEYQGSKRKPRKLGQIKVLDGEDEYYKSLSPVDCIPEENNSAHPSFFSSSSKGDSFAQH
Protocol: as §1, §2

[3] = biological target: CAMKK2 (Homo sapiens, UniProt Q96RR4); assay: DiscoverX KINOMEscan binding assay at 1 μM, CAMKK2; design: purchased Eurofins DiscoverX KINOMEscan
Sequence of CAMKK2 (Q96RR4 whole entry): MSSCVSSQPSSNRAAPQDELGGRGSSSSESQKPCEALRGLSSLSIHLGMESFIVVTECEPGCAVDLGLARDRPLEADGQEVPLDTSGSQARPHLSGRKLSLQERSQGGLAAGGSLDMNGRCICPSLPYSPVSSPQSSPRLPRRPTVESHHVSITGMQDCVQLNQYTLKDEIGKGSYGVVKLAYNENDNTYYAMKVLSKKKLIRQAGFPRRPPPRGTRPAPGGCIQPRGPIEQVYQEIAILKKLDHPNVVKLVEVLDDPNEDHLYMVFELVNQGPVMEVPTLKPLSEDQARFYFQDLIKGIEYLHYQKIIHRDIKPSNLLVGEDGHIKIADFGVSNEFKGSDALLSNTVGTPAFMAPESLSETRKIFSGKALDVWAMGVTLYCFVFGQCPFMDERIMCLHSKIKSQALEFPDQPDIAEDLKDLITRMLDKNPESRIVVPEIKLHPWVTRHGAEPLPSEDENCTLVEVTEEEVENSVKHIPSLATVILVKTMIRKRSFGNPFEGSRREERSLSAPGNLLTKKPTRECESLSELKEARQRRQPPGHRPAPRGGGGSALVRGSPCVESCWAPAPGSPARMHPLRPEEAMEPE
Protocol: as §1, §2

[4] = biological target: T3, PIP4K2C (Homo sapiens, UniProt Q8TBX8); assay: DiscoverX KINOMEscan binding assay at 1 μM, PIP4K2C
T3 construct: purchased Eurofins DiscoverX KINOMEscan
T3 sequence (Q8TBX8 1-421): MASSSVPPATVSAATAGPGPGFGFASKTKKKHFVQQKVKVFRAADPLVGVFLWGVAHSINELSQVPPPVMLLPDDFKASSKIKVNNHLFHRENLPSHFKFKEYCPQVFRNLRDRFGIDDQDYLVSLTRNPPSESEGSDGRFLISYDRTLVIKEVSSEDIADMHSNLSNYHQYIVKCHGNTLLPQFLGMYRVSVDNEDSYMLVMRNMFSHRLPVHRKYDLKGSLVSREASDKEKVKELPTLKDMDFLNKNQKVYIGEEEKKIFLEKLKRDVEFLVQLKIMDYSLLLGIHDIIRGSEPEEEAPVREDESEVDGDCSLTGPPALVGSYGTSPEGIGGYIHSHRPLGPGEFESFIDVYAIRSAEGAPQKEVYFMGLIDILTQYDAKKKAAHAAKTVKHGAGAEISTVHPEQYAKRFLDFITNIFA
Protocol: as §1
(§3) In the DiscoverX KinomeSCAN® assay panel, when screened at a concentration of 1 µM, compound 7 bound to very few kinases with S10 (1 µM) = 0.005. The only two kinases with significant binding for compound 7 were PIP4K2C with a PoC = 7.2 and PIM2 with PoC = 7.4. PIP4K2C is a lipid kinase that has very little catalytic activity, and there is no commercially available kinase activity assay, so this potential off-target activity for the negative control remains uncharacterized.

[5] = biological target: PIM2 (Homo sapiens, UniProt Q9P1W9); assay: DiscoverX KINOMEscan binding assay at 1 μM, PIM2; design: purchased Eurofins DiscoverX KINOMEscan
Sequence of PIM2 (Q9P1W9 whole entry): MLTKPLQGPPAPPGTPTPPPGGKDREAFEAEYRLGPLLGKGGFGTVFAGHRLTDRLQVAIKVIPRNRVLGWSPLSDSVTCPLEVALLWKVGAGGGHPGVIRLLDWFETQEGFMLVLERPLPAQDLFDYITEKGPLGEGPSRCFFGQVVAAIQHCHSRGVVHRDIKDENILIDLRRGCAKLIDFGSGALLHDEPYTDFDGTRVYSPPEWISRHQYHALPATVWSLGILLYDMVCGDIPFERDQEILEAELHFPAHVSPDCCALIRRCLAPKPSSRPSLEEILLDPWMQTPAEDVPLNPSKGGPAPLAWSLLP
Protocol: as §1, §3

[6] = percentage of control, compound at 1 μM, read-out: PoC (1 μM) CAMKK1
[7] = percentage of control, compound at 1 μM, read-out: PoC (1 μM) CAMKK2

T1 sequence (Q8N5S9 whole entry): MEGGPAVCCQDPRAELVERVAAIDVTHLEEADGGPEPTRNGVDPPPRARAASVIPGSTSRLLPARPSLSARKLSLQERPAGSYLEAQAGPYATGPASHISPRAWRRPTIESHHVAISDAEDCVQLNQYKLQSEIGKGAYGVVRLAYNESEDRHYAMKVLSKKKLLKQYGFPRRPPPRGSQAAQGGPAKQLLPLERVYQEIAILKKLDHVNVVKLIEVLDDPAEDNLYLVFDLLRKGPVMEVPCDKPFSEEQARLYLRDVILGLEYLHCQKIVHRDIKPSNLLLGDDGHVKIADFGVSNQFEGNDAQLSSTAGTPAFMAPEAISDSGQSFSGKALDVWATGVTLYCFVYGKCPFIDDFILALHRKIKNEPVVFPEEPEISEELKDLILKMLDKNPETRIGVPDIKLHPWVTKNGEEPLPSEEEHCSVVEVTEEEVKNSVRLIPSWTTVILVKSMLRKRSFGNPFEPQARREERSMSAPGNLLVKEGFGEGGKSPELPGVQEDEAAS

Question: With Cc1cccc(-c2cnc3occ(-c4ccc(C(=O)O)c(C5CCCC5)c4)c3c2)c1 [Compound 5] as the compound, how does the remaining binding at 1 µM [1, 6] read?
Answer: 12%

Question: What about the remaining binding at 1 µM ([2]; percentage of control, compound at 1 μM, read-out: PoC (1 μM) MYO3B) of the same compound?
Answer: 45%

Question: And the remaining binding at 1 µM [3, 7]?
Answer: 5.4%

Question: With O=C(O)c1ccc(-c2coc3ncc(-c4ccccc4)cc23)cc1Cl [Compound 7] as the compound, how does the remaining binding at 1 µM [1, 6] read?
Answer: 91%

Question: And the remaining binding at 1 µM ([4]; percentage of control, compound at 1 μM, read-out: PoC (1 μM) PIP4K2C)?
Answer: 7.2%

Question: What about the remaining binding at 1 µM [3, 7] of the same compound?
Answer: 84%

Question: What about the remaining binding at 1 µM ([5]; percentage of control, compound at 1 μM, read-out: PoC (1 μM) PIM2) of the same compound?
Answer: 7.4%

Question: Which remaining binding at 1 µM ([1]; 1000 nM, Entrez CAMKK1, read-out: Percent Control) does the source give for Cc1cccc(-c2cnc3occ(-c4ccc(C(=O)O)c(C5CCCC5)c4)c3c2)c1 [SGC-CAMKK2-1 (YL-36)] here?
Answer: 15%

Question: And the remaining binding at 1 µM ([2]; 1000 nM, Entrez MYO3B, read-out: Percent Control)?
Answer: 100%

Question: And the remaining binding at 1 µM ([4]; 1000 nM, DiscoveRx PIP5K2C, Entrez PIP4K2C, read-out: Percent Control)?
Answer: 61%

Question: What about the remaining binding at 1 µM ([3]; 1000 nM, Entrez CAMKK2, read-out: Percent Control) of the same compound?
Answer: 7.5%

Question: What about the remaining binding at 1 µM ([5]; 1000 nM, Entrez PIM2, read-out: Percent Control) of the same compound?
Answer: 96%

Question: For O=C(O)c1ccc(-c2coc3ncc(-c4ccccc4)cc23)cc1Cl [SGC-CAMKK2-1N (UNC-YL-83)], which remaining binding at 1 µM ([1]; CAMKK1, 1000 nM, read-out: Percent Control) is on record?
Answer: 91%

Question: What about the remaining binding at 1 µM ([2]; Compound Concentration 1000 nM, read-out: Percent Control) of the same compound?
Answer: 100%

Question: What about the remaining binding at 1 µM ([4]; PIP5K2C (PIP4K2C), 1000 nM, read-out: Percent Control) of the same compound?
Answer: 7.2%

Question: What about the remaining binding at 1 µM ([3]; CAMKK2, 1000 nM, read-out: Percent Control) of the same compound?
Answer: 84%

Question: What about the remaining binding at 1 µM ([5]; PIM2, 1000 nM, read-out: Percent Control) of the same compound?
Answer: 7.4%
